Data on 43 compounds can be found in US20100234372A1, “SUBSTITUTED 2-MERCAPTOQUINOLINE-3-CARBOXAMIDES AS KCNQ2/3 MODULATORS” (GRUNENTHAL GMBH, priority 2009, published 2010).

Structures are written as SMILES.

For this test, the target named is T1, KCNQ2/3 channels (Homo sapiens, UniProt O43525+O43526).
T1 construct: expressed in transfected cells; host or cells: CHO-K1 cells
Put plainly: Fluorescence assay using a voltage-sensitive dye (fluorimetry). The class given is cell-based. As to conditions: for EC50: CHO-K1 cells expressing KCNQ2/3 channels; for Emax at 1 µM: 50 μM retigabine = 100%, CHO-K1 cells expressing KCNQ2/3, read-out: Fluorimetry % efficacy at 1 μM (50 μM retigabine = 100%). The method, then: […] CHO-K1 cells expressing KCNQ2/3 channels are cultivated adherently at 37° C., 5% CO2 and 95% humidity in cell culture bottles (e.g. 80 cm^2 TC flasks, Nunc) with DMEM-high glucose (Sigma Aldrich, D7777) including 10% FCS (PAN Biotech, e.g. 3302-P270521) or alternatively MEM Alpha Medium (1×, liquid, Invitrogen, #22571), 10% foetal calf serum (FCS) (Invitrogen, #10270-106, heat-inactivated) and the necessary selection antibiotics.
Before being seeded out for the measurements, the cells are washed with a 1×DPBS buffer without Ca^2+/Mg^2+ (e.g. Invitrogen, #14190-094) and detached from the bottom of the culture vessel by means of Accutase (PAA Laboratories, #L11-007) (incubation with Accutase for 15 min at 37° C.). The cell count then present is determined using a CASY™ cell counter (TCC model, Scharfe System) in order subsequently to apply 20,000 to 30,000 cells/well/100 μl of the described nutrient medium, depending on density optimisation for the individual cell line, to 96-well measuring plates of the Corning™ CeIIBIND™ type (flat clear-bottom black polystyrene microplates, #3340). Incubation is then carried out for one hour at room temperature, without gassing or adjusting the humidity, followed by incubation for 24 hours at 37° C., 5% CO2 and 95% humidity.
The voltage-sensitive fluorescent dye from the Membrane Potential Assay Kit (Red™ bulk format part R8123 for FLIPR, MDS Analytical Technologies™) is prepared by dissolving the contents of a vessel of Membrane Potential Assay Kit Red Component A in 200 ml of extracellular buffer (ES buffer, 120 mM NaCl, 1 mM KCl, 10 mM HEPES, 2 mM CaCl2, 2 mM MgCl2, 10 mM glucose; pH 7.4). After removal of the nutrient medium, the cells are washed with 200 μl of ES buffer, then covered with a layer of 100 μl of the dye solution prepared above and incubated for 45 min at room temperature with exclusion of light.
The fluorescence measurements are carried out with a BMG Labtech FLUOstar™, BMG Labtech NOVOstar™ or BMG Labtech POLARstar™ instrument (525 nm excitation, 560 nm emission, bottom-read mode). After incubation of the dye, 50 μl of the substances to be tested in the desired concentrations, or 50 μl of ES buffer for control purposes, are introduced into separate cavities of the measuring plate and incubated for 30 min at room temperature whilst being shielded from light. The fluorescence intensity of the dye is then measured for 5 min and the fluorescence value F1 of each well is thus determined at a given, constant time. 15 μl of a […] KCl solution ([…]) are then added to each well. The change in fluorescence is subsequently measured until all relevant measured values have been obtained (mainly 5-30 min). At a given time after KCl application, a fluorescence value F2 is determined, in this case at the time of the fluorescence peak.
For calculation, the fluorescence intensity F2 is compared with the fluorescence intensity F1, and the agonistic activity of the target compound on the potassium channel is determined therefrom. F2 and F1 are calculated as follows: […]
is determined by adding to the reaction batch only the buffer solution instead of the substance to be tested, determining the value F1K of the fluorescence intensity, adding the potassium ions as described above and measuring a value F2K of the fluorescence intensity. Then F2K and F1K are calculated as follows: […]
Calculations of EC50 values are carried out with the aid of Prism v4.0 software (GraphPad Software™).

Usually EC50 stands for the concentration giving half of the maximal effect. For `CCSc1nc2cc(C(F)(F)F)ccc2c(C)c1C(=O)NCc1cccc(C(F)(F)F)c1` [compound 38], the 50% effective concentration (EC50) came to 76 nM and the Emax at 1 µM was determined as 142%. Regarding `CCSc1nc2cc(C(F)(F)F)ccc2c(C)c1C(=O)NCc1cccc(C)c1` [compound 82], the half-maximal effective concentration (EC50) came to 219 nM and the Emax at 1 µM was 108%. Consider `CCSc1nc2ccc(C)cc2c(C)c1C(=O)NCc1ccc(F)cc1` [compound 100], for which the EC50 came to 337 nM and the Emax at 1 µM was found to be 45%. Taken in the same sequence, the figures for `CCCSc1nc2cc(C(F)(F)F)ccc2c(C)c1C(=O)NCc1cccc(F)c1` [compound 46] were 141 nM and 155%. For the compound `CCSc1nc2cc(C(F)(F)F)ccc2c(C)c1C(=O)NCc1ccc(Cl)cc1` [compound 80], the EC50 is 148 nM and the Emax at 1 µM amounted to 135%. As to `CCSc1nc2cc(C(F)(F)F)ccc2c(C)c1C(=O)NCc1ccc(C(F)(F)F)cc1` [compound 55], the response was half-maximal at 149 nM (EC50) and the Emax at 1 µM was determined as 167%. With `CCSc1nc2ccc(C(F)(F)F)cc2c(C)c1C(=O)NCc1ccc(F)cc1` [compound 104], the Emax at 1 µM turned out to be 25%.

Regarding `CCSc1nc2cc(C(F)(F)F)ccc2c(C)c1C(=O)NCc1ccc(F)c(F)c1` [compound 31], it took 145 nM to reach a half-maximal effect (EC50) and the Emax at 1 µM was found to be 159%. Regarding `CCSc1nc2c(OC)cccc2c(C)c1C(=O)NCc1ccc(F)cc1` [compound 139], the EC50 was 1960 nM and the Emax at 1 µM came out at 91%. Taken in the same sequence, the figures for `CCSc1nc2cc(C(F)(F)F)ccc2c(C)c1C(=O)NCc1ccco1` [compound 110] were 89 nM and 183%.

Turning to `CCSc1nc2cc(C(F)(F)F)ccc2c(N(C)C)c1C(=O)NCc1cccc(F)c1` [compound 131, 4-Dimethylamino-2-ethylsulfanyl-N-[(3-fluorophenyl)-methyl]-7-(trifluoromethyl)-quinoline-3-carboxamide], the response was half-maximal at 1820 nM (EC50) and the Emax at 1 µM came to 104%. The like results for `CCSc1nc2cc(C(C)(C)C)ccc2c(C)c1C(=O)NCc1cccc(F)c1` [compound 95] were, in that order, 627 nM and 96%. As for `O=C(NCc1cccs1)c1cc2ccccc2nc1SCCS(=O)(=O)c1ccccc1` [compound 5, 2-[2-(Phenylsulfonyl)ethylthio]-N-(2-thienyl-methyl)-3-quinoline carboxamide], the EC50 was 2660 nM and the Emax at 1 µM was 98%. Taken in the same sequence, the figures for `CCCCCSc1nc2cc(C(F)(F)F)ccc2cc1C(=O)NCc1cccs1` [compound 15] were 778 nM and 145%.

As for `CCSc1nc2cc(C)ccc2c(C)c1C(=O)NCc1cccc(F)c1` [compound 107], a half-maximal effect (EC50) was put at 499 nM and the Emax at 1 µM stood at 161%. Take `CCSc1nc2cc(C(F)(F)F)ccc2c(C)c1C(=O)NCc1cc(C)cs1` [compound 70]: the EC50 turned out to be 1460 nM and the Emax at 1 µM was found to be 114%. Turning to `O=C(NCc1cccs1)c1cc2ccccc2nc1SCCS(=O)(=O)c1ccc(F)cc1` [compound 16], it took 78 nM to reach a half-maximal effect (EC50) and the Emax at 1 µM amounted to 164%.

On to `O=C(NCc1cccs1)c1cc2ccccc2nc1SCCS(=O)(=O)c1cccc(C(F)(F)F)c1` [compound 13, N-(2-Thienylmethyl)-2-[2-[3-(trifluoromethyl)-phenyl]sulfonylethylthio]-3-quinoline carboxamide], for which the EC50 is 991 nM and the Emax at 1 µM was 136%.

In the case of `CCSc1nc2cccc(F)c2c(C)c1C(=O)NCc1ccc(F)cc1` [compound 124], the Emax at 1 µM came out at 8%. Consider `CCSc1nc2cc(C(F)(F)F)ccc2c(C)c1C(=O)NCc1ccccc1` [compound 74], for which the EC50 came out at 163 nM and the Emax at 1 µM came out at 128%. For the compound `CCSc1nc2cc(O)ccc2c(C)c1C(=O)NCc1cccc(F)c1` [compound 129], the Emax at 1 µM stood at 12%. As for `CCSc1nc2ccc(C(F)(F)F)cc2c(C)c1C(=O)NCc1cccc(F)c1` [compound 103], the EC50 is 784 nM and the Emax at 1 µM was found to be 115%. As for `CSc1nc2cc(C(F)(F)F)ccc2c(C)c1C(=O)NCc1cccc(F)c1` [compound 114], the EC50 is 169 nM and the Emax at 1 µM stood at 175%. The like results for `CCSc1nc2cc(C(F)(F)F)ccc2c(C)c1C(=O)NCc1cccc(Cl)c1` [compound 79] were, in that order, 124 nM and 116%. The like results for `Cc1c(C(=O)NCc2cccc(F)c2)c(SC2CCCC2)nc2cc(C(F)(F)F)ccc12` [compound 48] were, in that order, 56 nM and 133%. For `O=C(NCc1cccs1)c1cc2ccccc2nc1SCCSc1ccc(F)cc1` [compound 24], the Emax at 1 µM is 27%. Turning to `CCSc1nc2cc(OC(F)(F)F)ccc2c(C)c1C(=O)NCc1ccc(F)cc1` [compound 132, 2-Ethylsulfanyl-N-[(4-fluorophenyl)-methyl]-4-methyl-7-(trifluoromethyloxy)-quinoline-3-carboxamide], a half-maximal effect (EC50) was put at 51 nM and the Emax at 1 µM is 161%. With `CCSc1nc2cc(C(F)(F)F)ccc2c(C)c1C(=O)NCc1ccccc1OC` [compound 84], the Emax at 1 µM turned out to be 25%. Consider `CCSc1nc2cccc(OC)c2c(C)c1C(=O)NCc1cccc(F)c1` [compound 125], for which the Emax at 1 µM was 14%. As for `CCSc1nc2cc(C(F)(F)F)ccc2c(C)c1C(=O)NCc1ccccc1C` [compound 81], the Emax at 1 µM amounted to 28%. As for `CCSc1nc2cc(C(F)(F)F)ccc2c(C)c1C(=O)NCc1ccc2ccccc2c1` [compound 43], the response was half-maximal at 159 nM (EC50) and the Emax at 1 µM is 77%. Take `CCSc1nc2cc(N3CCOCC3)ccc2c(C)c1C(=O)NCc1cccc(F)c1` [compound 134]: the Emax at 1 µM was 21%.

Regarding `Cc1c(C(=O)NCc2cccc(F)c2)c(SC2CCCCC2)nc2cc(C(F)(F)F)ccc12` [compound 52], the EC50 came to 64 nM and the Emax at 1 µM turned out to be 102%. Consider `CCSc1nc2ccc(F)cc2c(C)c1C(=O)NCc1cccc(F)c1` [compound 116], for which it took 598 nM to reach a half-maximal effect (EC50) and the Emax at 1 µM is 147%. The like results for `CCSc1nc2ccc(F)cc2c(C)c1C(=O)NCc1ccc(F)cc1` [compound 117] were, in that order, 222 nM and 87%. Taken in the same sequence, the figures for `CCSc1nc2cc(C(F)(F)F)ccc2c(C)c1C(=O)NCc1ccc(C(C)(C)C)cc1` [compound 36] were 136 nM and 93%. As for `CCSc1nc2c(F)cccc2c(C)c1C(=O)NCc1ccc(F)cc1` [compound 121], the EC50 worked out at 334 nM and the Emax at 1 µM turned out to be 90%. For the compound `CCCCSc1nc2cc(C(F)(F)F)ccc2c(C)c1C(=O)NCc1cccc(F)c1` [compound 49], the EC50 turned out to be 74 nM and the Emax at 1 µM amounted to 151%. `CCSc1nc2cc(C(F)(F)F)ccc2cc1C(=O)NCC(C)(C)C` [compound 90]: the EC50 came to 842 nM and the Emax at 1 µM is 53%. In the case of `CCSc1nc2cccc(F)c2c(C)c1C(=O)NCc1cccc(F)c1` [compound 123], the Emax at 1 µM came to 8%. Consider `CCSc1nc2cc(C(F)(F)F)ccc2c(C)c1C(=O)NCCC(C)(C)C` [compound 25], for which the Emax at 1 µM is 8%. In the case of `CCSc1nc2cc(C(F)(F)F)ccc2c(C)c1C(=O)NCCCc1ccccc1` [compound 40], the EC50 was found to be 194 nM and the Emax at 1 µM came out at 152%.

As to `O=C(NCc1cccs1)c1cc2ccc(C(F)(F)F)cc2nc1SCCS(=O)(=O)c1ccccc1` [compound 9], the Emax at 1 µM came out at 26%.
